Measurements published in patent US8617872B2, “Compositions for culturing spirochetes” (priority 2000, dated 2013).

Key:
Type in all cases: cell-based
Leptospira [1] = assay: Susceptibility testing of Leptospira isolated from a patient with symptoms of multiple sclerosis; conditions: for Antibiotic Susceptibility Results, SERUM: Leptospira culture from serum of multiple sclerosis patient; for Antibiotic Susceptibility Results, URINE: Leptospira culture from urine of multiple sclerosis patient
Description: This example describes the preparation of a pellet used for antimicrobial susceptibility testing of a culture sample. […] In order to form pellet, an aliquot of this culture sample is placed in a microcentrifuge tube along with 10% SDS solution, and centrifuged at 14,000 g to disrupt the spirochetes and maximize the number of available eptiopic sites. […] This inoculated alternative growth medium was then allowed to incubate in the closed micro centrifuge tube until a distinctive pellet was observed (typically 7-14 days).
MICROSCAN antibiotic susceptibility microtiter plates were then inoculated with (e.g., 110 μl of) inoculum and allowed to incubate at 35° C. for 16-20 hours. The microtiter plates were then scanned for growth and respective sensitivity reaction (both the control well and the growth well).

A. lwoffii = assay: Antibiotic susceptibility test (MICROSCAN or disc diffusion), control organism A. lwoffii; conditions: total isolates 1
Pseudomonas = assay: Antibiotic susceptibility test (MICROSCAN or disc diffusion), control organism Pseudomonas; conditions: total isolates 1
Y. entero gp. = assay: Antibiotic susceptibility test (MICROSCAN or disc diffusion), control organism Y. entero gp.; conditions: total isolates 1
Borrelia = assay: Antibiotic susceptibility test (MICROSCAN or disc diffusion) of patient samples positive for Borrelia; conditions: total isolates 519
Text: (§1) This example describes the preparation of a pellet used for antimicrobial susceptibility testing of a culture sample. The procedure begins with a culture (e.g., prepared in the manner described in Example 2), where serum from a patient is inoculated in GSI-1 media and allowed to grow. In order to form pellet, an aliquot of this culture sample is placed in a microcentrifuge tube along with 10% SDS solution, and centrifuged at 14,000 g to disrupt the spirochetes and maximize the number of available eptiopic sites. The disrupted spirochetes were then cultured in an alternative growth medium made up of one part GSI-1 medium, one part 6.5% lactalbumin hydrolysate, one part 2% brain heart infusion, one part 10% pluronic fluid, and one part of the isolated (disrupted) spirochetes. This inoculated alternative growth medium was then allowed to incubate in the closed micro centrifuge tube until a distinctive pellet was observed (typically 7-14 days).
(§2) Following the observation of pellet formation, the tube was vortexed and incubated at 35° C. until a MacFarlane standard of between 8 to 12% turbidity was achieved. MICROSCAN antibiotic susceptibility microtiter plates were then inoculated with (e.g., 110 μl of) inoculum and allowed to incubate at 35° C. for 16-20 hours. The microtiter plates were then scanned for growth and respective sensitivity reaction (both the control well and the growth well). Table 2 below lists the various antimicrobials tested with this sample and whether growth of the organism was inhibited (susceptible) or whether the growth of the organism was not inhibited (resistant).
(§3) This Example describes the results for susceptibility tests that were performed on a large number of patient samples positive for either Borrelia or Leptospira. […] The results presented in Table 3 reveal the varied response of different types of spirochetes to different antibiotics.

E. coli = assay: Antibiotic susceptibility test (MICROSCAN or disc diffusion), control organism E. coli; conditions: total isolates 1
Tatumella = assay: Antibiotic susceptibility test (MICROSCAN or disc diffusion), control organism Tatumella; conditions: total isolates 2
Text: as §1, §2, §3

Leptospira [2] = assay: Antibiotic susceptibility test (MICROSCAN or disc diffusion) of patient samples positive for Leptospira; conditions: total isolates 276
Text: as §1, §2, §3

Leptospira [3] = assay: Susceptibility testing of Leptospira isolated from a patient with symptoms of rheumatoid arthritis; conditions: for Antibiotic Susceptibility Results, SERUM: Leptospira culture from serum of rheumatoid arthritis patient; for Antibiotic Susceptibility Results, URINE: Leptospira culture from urine of rheumatoid arthritis patient
Text: as §1
as §2, with “well).” for “well). Table 2 below lists the various antimicrobials tested with this sample and whether growth of the organism was inhibited (susceptible) or whether the growth of the organism was not inhibited (resistant).”
This Example describes the diagnosis and treatment of a human patient with symptoms of rheumatoid arthritis. In particular, serum and urine samples from this patient were initially cultured on GSI-1 (e.g., as described in Example 2), and screened for the presence of spirochetes (e.g., as described in Example 3). […] These cultures were then used to produce pellets for antimicrobial susceptibility testing (e.g., as described in Example 6). The antimicrobial susceptibility tests were then carried out on each sample (e.g., as described in Example 7) with the antimicrobials listed below in Table 5.

Treponema isolate = assay: Antimicrobial susceptibility test (MICROSCAN plates) of a patient's Treponema isolate; conditions: Treponema infected patient's isolate; MICROSCAN plates, 35° C., 16-20 hours
Description: For susceptibility testing, the organisms harvested could be assayed using any suitable susceptibility assay (See, Example 7). In some embodiments of the present invention, MICROSCAN antibiotic susceptibility plates were inoculated and incubated. Following incubations, plates were scanned for growth and respective sensitivity reaction. […] For the results to be considered reliable, the no growth of organisms was accepted in the negative control well, while the positive control well had to have sufficient growth to be read. In some embodiments of the present invention, to confirm the presence or absence of growing spirochetes in the growth well, aliquots from the growth well were reinoculated with fresh growth media and after an incubation time (e.g., 7-10 days) the presence of the organisms was confirmed (e.g., by phase contrast microscopy or direct fluorescent antibody staining).
as §1
This example describes an antimicrobial susceptibility test performed for a human patient. The patient had previously been testing using GSI-1 medium (e.g., as described in Example 2) for the presence of any spirochetes. […] This culture sample was then transferred to a microcentrifuge tube, and a pellet for antimicrobial susceptibility testing was prepared as described in Example 6.
as §2

## NCC[C@H](O)C(=O)N[C@@H]1C[C@H](N)[C@@H](O[C@H]2O[C@H](CN)[C@@H](O)[C@H](O)[C@H]2O)[C@H](O)[C@H]1O[C@H]1O[C@H](CO)[C@@H](O)[C@H](N)[C@H]1O [Amikacin]
Leptospira [1]
  Antibiotic Susceptibility Results, SERUM: Resistant
  Antibiotic Susceptibility Results, URINE: Resistant
A. lwoffii
  Antibiotic Susceptibility Test Results, A. lwoffii: 100%
Pseudomonas
  Antibiotic Susceptibility Test Results, Pseudomonas: 100%
Y. entero gp.
  Antibiotic Susceptibility Test Results, Y. entero gp.: 100%
Borrelia
  Antibiotic Susceptibility Test Results, Borrelia: 84%
E. coli
  Antibiotic Susceptibility Test Results, E. coli: 100%
Tatumella
  Antibiotic Susceptibility Test Results, Tatumella: 100%
Leptospira [2]
  Antibiotic Susceptibility Test Results, Leptospira: 85%
Leptospira [3]
  Antibiotic Susceptibility Results, SERUM: Resistant
  Antibiotic Susceptibility Results, URINE: Resistant

## CO/N=C(\C(=O)N[C@@H]1C(=O)N2C(C(=O)O)=C(COC(C)=O)CS[C@H]12)c1csc(N)n1 [Cefotaxime]
Leptospira [1]
  Antibiotic Susceptibility Results, SERUM: Resistant
  Antibiotic Susceptibility Results, URINE: Resistant
A. lwoffii
  Antibiotic Susceptibility Test Results, A. lwoffii: 100%
Pseudomonas
  Antibiotic Susceptibility Test Results, Pseudomonas: 100%
Y. entero gp.
  Antibiotic Susceptibility Test Results, Y. entero gp.: 100%
Borrelia
  Antibiotic Susceptibility Test Results, Borrelia: 60%
E. coli
  Antibiotic Susceptibility Test Results, E. coli: 100%
Tatumella
  Antibiotic Susceptibility Test Results, Tatumella: 0%
Leptospira [2]
  Antibiotic Susceptibility Test Results, Leptospira: 64%
Leptospira [3]
  Antibiotic Susceptibility Results, SERUM: Resistant
  Antibiotic Susceptibility Results, URINE: Resistant

## CC(C)(O/N=C(\C(=O)N[C@@H]1C(=O)N2C(C(=O)[O-])=C(C[n+]3ccccc3)CS[C@H]12)c1csc(N)n1)C(=O)O [Ceftazidime]
Leptospira [1]
  Antibiotic Susceptibility Results, SERUM: Resistant
  Antibiotic Susceptibility Results, URINE: Resistant
A. lwoffii
  Antibiotic Susceptibility Test Results, A. lwoffii: 100%
Pseudomonas
  Antibiotic Susceptibility Test Results, Pseudomonas: 100%
Y. entero gp.
  Antibiotic Susceptibility Test Results, Y. entero gp.: 100%
Borrelia
  Antibiotic Susceptibility Test Results, Borrelia: 36%
E. coli
  Antibiotic Susceptibility Test Results, E. coli: 100%
Tatumella
  Antibiotic Susceptibility Test Results, Tatumella: 0%
Leptospira [2]
  Antibiotic Susceptibility Test Results, Leptospira: 41%
Leptospira [3]
  Antibiotic Susceptibility Results, SERUM: Resistant
  Antibiotic Susceptibility Results, URINE: Resistant

## O=C(O)c1cn(C2CC2)c2cc(N3CCNCC3)c(F)cc2c1=O [Ciprofloxacin]
Leptospira [1]
  Antibiotic Susceptibility Results, SERUM: Susceptible
  Antibiotic Susceptibility Results, URINE: Susceptible
A. lwoffii
  Antibiotic Susceptibility Test Results, A. lwoffii: 100%
Pseudomonas
  Antibiotic Susceptibility Test Results, Pseudomonas: 100%
Y. entero gp.
  Antibiotic Susceptibility Test Results, Y. entero gp.: 100%
Borrelia
  Antibiotic Susceptibility Test Results, Borrelia: 84%
Treponema isolate
  RESULT (antibiotic susceptibility): Resistant
E. coli
  Antibiotic Susceptibility Test Results, E. coli: 100%
Tatumella
  Antibiotic Susceptibility Test Results, Tatumella: 100%
Leptospira [2]
  Antibiotic Susceptibility Test Results, Leptospira: 78%
Leptospira [3]
  Antibiotic Susceptibility Results, SERUM: Susceptible
  Antibiotic Susceptibility Results, URINE: Susceptible

## C[C@H]1COc2c(N3CCN(C)CC3)c(F)cc3c(=O)c(C(=O)O)cn1c23 [Levofloxacin]
Leptospira [1]
  Antibiotic Susceptibility Results, SERUM: Susceptible
  Antibiotic Susceptibility Results, URINE: Susceptible
A. lwoffii
  Antibiotic Susceptibility Test Results, A. lwoffii: 100%
Pseudomonas
  Antibiotic Susceptibility Test Results, Pseudomonas: 100%
Y. entero gp.
  Antibiotic Susceptibility Test Results, Y. entero gp.: 100%
Borrelia
  Antibiotic Susceptibility Test Results, Borrelia: 86%
E. coli
  Antibiotic Susceptibility Test Results, E. coli: 100%
Tatumella
  Antibiotic Susceptibility Test Results, Tatumella: 100%
Leptospira [2]
  Antibiotic Susceptibility Test Results, Leptospira: 83%
Leptospira [3]
  Antibiotic Susceptibility Results, SERUM: Susceptible
  Antibiotic Susceptibility Results, URINE: Susceptible

## C[C@@H](O)[C@H]1C(=O)N2C(C(=O)O)=C(S[C@@H]3CN[C@H](C(=O)N(C)C)C3)[C@H](C)[C@H]12 [Meropenem]
Leptospira [1]
  Antibiotic Susceptibility Results, SERUM: Resistant
  Antibiotic Susceptibility Results, URINE: Resistant
A. lwoffii
  Antibiotic Susceptibility Test Results, A. lwoffii: 100%
Pseudomonas
  Antibiotic Susceptibility Test Results, Pseudomonas: 100%
Y. entero gp.
  Antibiotic Susceptibility Test Results, Y. entero gp.: 100%
Borrelia
  Antibiotic Susceptibility Test Results, Borrelia: 82%
Treponema isolate
  RESULT (antibiotic susceptibility): Resistant
E. coli
  Antibiotic Susceptibility Test Results, E. coli: 100%
Tatumella
  Antibiotic Susceptibility Test Results, Tatumella: 100%
Leptospira [2]
  Antibiotic Susceptibility Test Results, Leptospira: 75%
Leptospira [3]
  Antibiotic Susceptibility Results, SERUM: Resistant
  Antibiotic Susceptibility Results, URINE: Resistant

## CCN1CCN(C(=O)N[C@@H](C(=O)N[C@@H]2C(=O)N3[C@@H]2SC(C)(C)[C@@H]3C(=O)O)c2ccccc2)C(=O)C1=O [Piperacillin]
Leptospira [1]
  Antibiotic Susceptibility Results, SERUM: Resistant
  Antibiotic Susceptibility Results, URINE: Resistant
A. lwoffii
  Antibiotic Susceptibility Test Results, A. lwoffii: 100%
Pseudomonas
  Antibiotic Susceptibility Test Results, Pseudomonas: 100%
Y. entero gp.
  Antibiotic Susceptibility Test Results, Y. entero gp.: 100%
Borrelia
  Antibiotic Susceptibility Test Results, Borrelia: 60%
Treponema isolate
  RESULT (antibiotic susceptibility): Susceptible
E. coli
  Antibiotic Susceptibility Test Results, E. coli: 100%
Tatumella
  Antibiotic Susceptibility Test Results, Tatumella: 100%
Leptospira [2]
  Antibiotic Susceptibility Test Results, Leptospira: 55%
Leptospira [3]
  Antibiotic Susceptibility Results, SERUM: Resistant
  Antibiotic Susceptibility Results, URINE: Resistant

## NC[C@H]1O[C@H](O[C@H]2[C@H](O)[C@@H](O[C@H]3O[C@H](CO)[C@@H](O)[C@H](N)[C@H]3O)[C@H](N)C[C@@H]2N)[C@H](N)C[C@@H]1O [Tobramycin]
Leptospira [1]
  Antibiotic Susceptibility Results, SERUM: Resistant
  Antibiotic Susceptibility Results, URINE: Resistant
A. lwoffii
  Antibiotic Susceptibility Test Results, A. lwoffii: 100%
Pseudomonas
  Antibiotic Susceptibility Test Results, Pseudomonas: 100%
Y. entero gp.
  Antibiotic Susceptibility Test Results, Y. entero gp.: 100%
Borrelia
  Antibiotic Susceptibility Test Results, Borrelia: 81%
Treponema isolate
  RESULT (antibiotic susceptibility): Intermediate
E. coli
  Antibiotic Susceptibility Test Results, E. coli: 100%
Tatumella
  Antibiotic Susceptibility Test Results, Tatumella: 100%
Leptospira [2]
  Antibiotic Susceptibility Test Results, Leptospira: 84%
Leptospira [3]
  Antibiotic Susceptibility Results, SERUM: Resistant
  Antibiotic Susceptibility Results, URINE: Resistant

## Gentamicin
Leptospira [1]
  Antibiotic Susceptibility Results, SERUM: Resistant
  Antibiotic Susceptibility Results, URINE: Resistant
A. lwoffii
  Antibiotic Susceptibility Test Results, A. lwoffii: 100%
Pseudomonas
  Antibiotic Susceptibility Test Results, Pseudomonas: 100%
Y. entero gp.
  Antibiotic Susceptibility Test Results, Y. entero gp.: 100%
Borrelia
  Antibiotic Susceptibility Test Results, Borrelia: 89%
Treponema isolate
  RESULT (antibiotic susceptibility): Resistant
E. coli
  Antibiotic Susceptibility Test Results, E. coli: 100%
Tatumella
  Antibiotic Susceptibility Test Results, Tatumella: 100%
Leptospira [2]
  Antibiotic Susceptibility Test Results, Leptospira: 86%
Leptospira [3]
  Antibiotic Susceptibility Results, SERUM: Resistant
  Antibiotic Susceptibility Results, URINE: Resistant

## Ticarcillin/Clavulanate
Leptospira [1]
  Antibiotic Susceptibility Results, SERUM: Resistant
  Antibiotic Susceptibility Results, URINE: Resistant
A. lwoffii
  Antibiotic Susceptibility Test Results, A. lwoffii: 100%
Pseudomonas
  Antibiotic Susceptibility Test Results, Pseudomonas: 100%
Y. entero gp.
  Antibiotic Susceptibility Test Results, Y. entero gp.: 100%
Borrelia
  Antibiotic Susceptibility Test Results, Borrelia: 79%
Treponema isolate
  RESULT (antibiotic susceptibility): Susceptible
E. coli
  Antibiotic Susceptibility Test Results, E. coli: 100%
Tatumella
  Antibiotic Susceptibility Test Results, Tatumella: 100%
Leptospira [2]
  Antibiotic Susceptibility Test Results, Leptospira: 75%
Leptospira [3]
  Antibiotic Susceptibility Results, SERUM: Resistant
  Antibiotic Susceptibility Results, URINE: Resistant
